Measured values reported in PubChem BioAssay (NCI).
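1) Cells in 96-well plates. 2) Compound, 48 h, 5 concentrations. 3) Linear interpolation between surrounding doses. 4) Unreached endpoint = highest concentration. Here, GI50 denotes the concentration required for 50% inhibition of growth. TGI: concentration producing complete growth inhibition.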

Tests used:
Test in all cases: DTP human tumour cell line panel, 48 h
SK-MEL-2 melanoma = system: SK-MEL-2 melanoma
HOP-92 NSCLC = system: HOP-92 NSCLC
MDA-MB-231 breast = system: MDA-MB-231 breast
U251 CNS = system: U251 CNS
RXF 393 renal = system: RXF 393 renal
OVCAR-5 ovarian = system: OVCAR-5 ovarian
NCI-H23 lung = system: NCI-H23 lung
SK-MEL-5 melanoma = system: SK-MEL-5 melanoma
HS 578T breast = system: HS 578T breast

COc1ccc2c(c1)-c1c(c3cc(OC)ccc3n1CCN(C)C)CC2
TGI (SK-MEL-2 melanoma): 29 µM | TGI (HOP-92 NSCLC): 27.7 µM | TGI (MDA-MB-231 breast): 28.2 µM | TGI (U251 CNS): 24.8 µM | TGI (RXF 393 renal): 28.2 µM | TGI (OVCAR-5 ovarian): 29.9 µM | TGI (NCI-H23 lung): 29.6 µM | TGI (SK-MEL-5 melanoma): 24.9 µM | TGI (HS 578T breast): 28 µM

COC(=O)C1=C(C(=O)OC)SC(=C2SC3=C(SC(=C4SCCS4)S3)S2)S1
TGI (SK-MEL-2 melanoma): > 100 µM | TGI (HOP-92 NSCLC): > 100 µM | TGI (MDA-MB-231 breast): > 100 µM | TGI (U251 CNS): > 100 µM | TGI (RXF 393 renal): > 100 µM | TGI (OVCAR-5 ovarian): > 100 µM | TGI (NCI-H23 lung): > 100 µM | TGI (SK-MEL-5 melanoma): > 100 µM | TGI (HS 578T breast): > 100 µM

CC1(C)N=C(N)N=C(N)N1c1cccc(OCc2cccc(N)c2)c1
TGI (SK-MEL-2 melanoma): > 100 µM | TGI (HOP-92 NSCLC): > 100 µM | TGI (MDA-MB-231 breast): > 100 µM | TGI (U251 CNS): > 100 µM | TGI (RXF 393 renal): > 100 µM | TGI (OVCAR-5 ovarian): > 100 µM | TGI (NCI-H23 lung): > 100 µM | TGI (SK-MEL-5 melanoma): > 100 µM | TGI (HS 578T breast): > 100 µM

COc1cc2[nH]c(=O)c3cc(-c4ccccc4)cc4c(Cl)nc(c1OC)c2c43
TGI (SK-MEL-2 melanoma): 38.7 µM | TGI (HOP-92 NSCLC): > 79.3 µM | TGI (MDA-MB-231 breast): > 100 µM | TGI (U251 CNS): 62.5 µM | TGI (RXF 393 renal): > 55.7 µM | TGI (OVCAR-5 ovarian): > 100 µM | TGI (NCI-H23 lung): 47.5 µM | TGI (SK-MEL-5 melanoma): 28 µM | TGI (HS 578T breast): > 100 µM

Oc1c(OCc2nnc(CCCCCCCCc3nnc(COc4ccc5ccccc5c4O)o3)o2)ccc2ccccc12
TGI (SK-MEL-2 melanoma): > 100 µM | TGI (HOP-92 NSCLC): > 100 µM | TGI (MDA-MB-231 breast): > 100 µM | TGI (U251 CNS): > 100 µM | TGI (RXF 393 renal): > 100 µM | TGI (OVCAR-5 ovarian): > 100 µM | TGI (NCI-H23 lung): > 100 µM | TGI (SK-MEL-5 melanoma): > 100 µM

COc1ccc(C2=C(Cl)C(=O)O/C2=C\c2ccc(OC)c(Br)c2)cc1Cl
TGI (SK-MEL-2 melanoma): 60.2 µM | TGI (HOP-92 NSCLC): 49.9 µM | TGI (U251 CNS): 36.6 µM | TGI (RXF 393 renal): 46.3 µM | TGI (OVCAR-5 ovarian): > 100 µM | TGI (NCI-H23 lung): 32 µM | TGI (SK-MEL-5 melanoma): > 100 µM | TGI (HS 578T breast): > 100 µM

O=C1/C(=C/c2ccc(Cl)cc2)CCCc2ccc(F)cc21
GI50 (HOP-92 NSCLC): 9.3 µM | TGI (HOP-92 NSCLC): 34 µM | GI50 (MDA-MB-231 breast): 19.8 µM | TGI (MDA-MB-231 breast): 52.8 µM | GI50 (U251 CNS): 13.4 µM | TGI (U251 CNS): 52.6 µM | GI50 (RXF 393 renal): 24.2 µM | TGI (RXF 393 renal): 52 µM | GI50 (OVCAR-5 ovarian): 32.4 µM | TGI (OVCAR-5 ovarian): > 100 µM | GI50 (NCI-H23 lung): 36.7 µM | TGI (NCI-H23 lung): > 100 µM | GI50 (SK-MEL-5 melanoma): 17.4 µM | TGI (SK-MEL-5 melanoma): 31.3 µM | GI50 (HS 578T breast): 29.2 µM | TGI (HS 578T breast): 62 µM

Cc1nnc2n1-c1ccccc1N(Cc1ccccc1)CC2
TGI (SK-MEL-2 melanoma): > 100 µM | TGI (HOP-92 NSCLC): 51.9 µM | TGI (MDA-MB-231 breast): > 100 µM | TGI (U251 CNS): > 100 µM | TGI (RXF 393 renal): > 100 µM | TGI (OVCAR-5 ovarian): > 100 µM | TGI (NCI-H23 lung): > 100 µM | TGI (SK-MEL-5 melanoma): > 100 µM | TGI (HS 578T breast): > 100 µM

Cn1nc2c(c1N)Cc1c(nn(C)c1N)-c1ccccc1-2
TGI (SK-MEL-2 melanoma): > 100 µM | TGI (HOP-92 NSCLC): > 100 µM | TGI (MDA-MB-231 breast): > 100 µM | TGI (U251 CNS): > 100 µM | TGI (RXF 393 renal): > 100 µM | TGI (OVCAR-5 ovarian): > 100 µM | TGI (NCI-H23 lung): > 100 µM | TGI (SK-MEL-5 melanoma): > 100 µM | TGI (HS 578T breast): > 100 µM

Cc1cc(OCc2nnc3sc(NC(=O)c4ccccc4)nn23)ccc1Cl
TGI (SK-MEL-2 melanoma): 80.5 µM | TGI (HOP-92 NSCLC): 34.8 µM | TGI (MDA-MB-231 breast): > 100 µM | TGI (U251 CNS): > 100 µM | TGI (RXF 393 renal): 83.3 µM | TGI (OVCAR-5 ovarian): > 100 µM | TGI (NCI-H23 lung): 82.2 µM | TGI (SK-MEL-5 melanoma): > 100 µM | TGI (HS 578T breast): 95.6 µM

COc1cc2c3c(cc(Cl)nc3c1OC)C(=O)C(=O)N2
TGI (SK-MEL-2 melanoma): 27.6 µM | TGI (HOP-92 NSCLC): 3.44 µM | TGI (MDA-MB-231 breast): 3.83 µM | TGI (U251 CNS): 30.3 µM | TGI (RXF 393 renal): 27.5 µM | TGI (OVCAR-5 ovarian): 32.2 µM | TGI (NCI-H23 lung): 34.1 µM | TGI (SK-MEL-5 melanoma): 32.4 µM | TGI (HS 578T breast): > 100 µM

CCOC(=O)/C=C(/C=C\COC1CCCCO1)c1ccccc1 (stereo not given)
TGI (SK-MEL-2 melanoma): > 100 µM | TGI (MDA-MB-231 breast): > 100 µM | TGI (U251 CNS): 96 µM | TGI (RXF 393 renal): 55.3 µM | TGI (OVCAR-5 ovarian): > 100 µM | TGI (NCI-H23 lung): > 100 µM | TGI (SK-MEL-5 melanoma): > 100 µM | TGI (HS 578T breast): > 100 µM

C=C(C)[C@H]1CC(=O)/C(C)=C\CC/C(C)=C/CC[C@@]2(C)O[C@@H]2C1
TGI (SK-MEL-2 melanoma): > 100 µM | TGI (HOP-92 NSCLC): > 100 µM | TGI (MDA-MB-231 breast): > 100 µM | TGI (U251 CNS): 49.8 µM | TGI (OVCAR-5 ovarian): 94.8 µM | TGI (NCI-H23 lung): 51.8 µM | TGI (SK-MEL-5 melanoma): 45.5 µM | TGI (HS 578T breast): > 100 µM

CCC(=O)Nc1ccc(NS(=O)(=O)c2ccc(Cl)cc2)cc1
TGI (SK-MEL-2 melanoma): > 100 µM | TGI (HOP-92 NSCLC): > 100 µM | TGI (RXF 393 renal): > 100 µM | TGI (OVCAR-5 ovarian): > 100 µM | TGI (NCI-H23 lung): > 100 µM | TGI (SK-MEL-5 melanoma): > 100 µM | TGI (HS 578T breast): > 100 µM

COc1cc(OC)cc(Oc2nc3cc(F)c(F)cc3nc2-c2ccccc2)c1
TGI (SK-MEL-2 melanoma): > 100 µM | TGI (HOP-92 NSCLC): > 100 µM | TGI (U251 CNS): > 100 µM | TGI (RXF 393 renal): > 100 µM | TGI (OVCAR-5 ovarian): > 100 µM | TGI (NCI-H23 lung): > 100 µM | TGI (SK-MEL-5 melanoma): > 100 µM | TGI (HS 578T breast): > 100 µM

CCOc1snc(C(Cl)(Cl)Cl)c1Cl
TGI (MDA-MB-231 breast): > 100 µM | TGI (U251 CNS): > 100 µM | TGI (RXF 393 renal): 27.6 µM | TGI (OVCAR-5 ovarian): > 100 µM | TGI (NCI-H23 lung): 44.3 µM | TGI (SK-MEL-5 melanoma): 21.1 µM | TGI (HS 578T breast): > 100 µM

CCN(CCCCCCCCCCN1CC(=O)N(CCCCCCCCCCN(CC)Cc2ccccc2OC)CC1=O)Cc1ccccc1OC
GI50 (HOP-92 NSCLC): 0.359 µM | TGI (HOP-92 NSCLC): 2.34 µM | GI50 (MDA-MB-231 breast): 1.56 µM | TGI (MDA-MB-231 breast): 3.61 µM | GI50 (U251 CNS): 1.15 µM | TGI (U251 CNS): 2.58 µM | GI50 (RXF 393 renal): 0.646 µM | TGI (RXF 393 renal): 1.93 µM | GI50 (OVCAR-5 ovarian): 3.36 µM | TGI (OVCAR-5 ovarian): 15.1 µM | GI50 (NCI-H23 lung): 1.81 µM | TGI (NCI-H23 lung): 4.52 µM | GI50 (SK-MEL-5 melanoma): 1.36 µM | TGI (SK-MEL-5 melanoma): 2.7 µM | GI50 (HS 578T breast): 1.35 µM | TGI (HS 578T breast): 4.26 µM

COC(=O)C1=C(C)NC(C)=C(C(=O)OC)C1c1cccc(N=O)c1
TGI (SK-MEL-2 melanoma): 30.9 µM | TGI (HOP-92 NSCLC): 20.1 µM | TGI (MDA-MB-231 breast): 27.9 µM | TGI (U251 CNS): 30.7 µM | TGI (RXF 393 renal): 26.8 µM | TGI (OVCAR-5 ovarian): 32.3 µM | TGI (NCI-H23 lung): 36.2 µM | TGI (SK-MEL-5 melanoma): 29.8 µM

N#C/C(=C\c1cccc(Br)c1)c1nc2ccccc2c(=O)[nH]1
TGI (SK-MEL-2 melanoma): > 100 µM | TGI (HOP-92 NSCLC): 53.2 µM | TGI (MDA-MB-231 breast): > 100 µM | TGI (U251 CNS): > 100 µM | TGI (RXF 393 renal): > 100 µM | TGI (OVCAR-5 ovarian): > 100 µM | TGI (SK-MEL-5 melanoma): > 100 µM

S=c1[nH]nc(Cn2c3ccc(Br)cc3c3nc4ccccc4nc32)n1C1CCCCC1
TGI (SK-MEL-2 melanoma): 54.6 µM | TGI (HOP-92 NSCLC): 19.6 µM | TGI (MDA-MB-231 breast): > 75.2 µM | TGI (U251 CNS): > 67.6 µM | TGI (RXF 393 renal): 70.1 µM | TGI (OVCAR-5 ovarian): > 100 µM | TGI (NCI-H23 lung): 42.1 µM | TGI (SK-MEL-5 melanoma): 49.1 µM

CCCCCCc1cc2cc(-c3csc(-c4ccc(OC)cc4)n3)c(=O)oc2cc1O
TGI (SK-MEL-2 melanoma): 32 µM | TGI (HOP-92 NSCLC): 16.2 µM | TGI (MDA-MB-231 breast): 25.3 µM | TGI (U251 CNS): 18.7 µM | TGI (RXF 393 renal): 29.2 µM | TGI (OVCAR-5 ovarian): 79.9 µM | TGI (SK-MEL-5 melanoma): 47.7 µM | TGI (HS 578T breast): 60.7 µM

O=c1c(-c2ccccc2)c(SCCN2CCCCCC2)n(-c2ccccc2)c(=S)n1-c1ccccc1
TGI (HOP-92 NSCLC): > 100 µM | TGI (RXF 393 renal): 98.6 µM | TGI (OVCAR-5 ovarian): 44.3 µM | TGI (NCI-H23 lung): > 100 µM | TGI (SK-MEL-5 melanoma): > 100 µM | TGI (HS 578T breast): > 100 µM
